From PubChem BioAssay (NCI)
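Five compound concentrations were applied to cells in 96-well plates for 48 hours; endpoints were derived by simple linear interpolation of the resulting dose-response curve. TGI: concentration producing complete growth inhibition.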

How the values were obtained:
Experiment in all cases: growth of human tumour cells (NCI), 48 h
ACHN renal = tested on: ACHN renal
K-562 leukemia = tested on: K-562 leukemia
MDA-MB-231 breast = tested on: MDA-MB-231 breast
MDA-MB-435 = tested on: MDA-MB-435
MDA-N = tested on: MDA-N
NCI-H226 lung = tested on: NCI-H226 lung
RPMI-8226 leukemia = tested on: RPMI-8226 leukemia
SN12C renal = tested on: SN12C renal
UO-31 renal = tested on: UO-31 renal
SK-MEL-28 melanoma = tested on: SK-MEL-28 melanoma

SMILES | TGI (ACHN renal) | TGI (K-562 leukemia) | TGI (MDA-MB-231 breast) | TGI (MDA-MB-435) | TGI (MDA-N) | TGI (NCI-H226 lung) | TGI (RPMI-8226 leukemia) | TGI (SN12C renal) | TGI (UO-31 renal) | TGI (SK-MEL-28 melanoma)
CC(=O)NC1C(OCC(=O)NC(C)C(=O)NC(CCC(=O)NCCCCCNc2ccc([N+](=O)[O-])c3[nH]c4ccccc4c(=O)c23)C(N)=O)C(O)C(CO)OC1(C)OCc1ccccc1 (stereo not drawn) | > 50 µM | > 50 µM | 31.4 µM | > 50 µM | > 50 µM | > 50 µM | 36.6 µM | > 50 µM | > 50 µM | –
CCN(CC)P1(=S)Oc2ccc3ccccc3c2-c2c(ccc3ccccc23)O1 | > 100 µM | > 100 µM | > 100 µM | > 100 µM | > 100 µM | > 100 µM | > 100 µM | > 100 µM | > 100 µM | > 100 µM
CCOC(=O)C1(C(=O)OCC)C[C@H]2CON=C2[C@@H]1c1ccc(C(F)(F)F)cc1 | 34.4 µM | > 100 µM | > 100 µM | > 100 µM | > 100 µM | > 100 µM | > 100 µM | > 100 µM | 27.5 µM | > 100 µM
COc1ccc2cc(C(=O)NCCc3ccccc3)ccc2c1OC | > 100 µM | > 100 µM | 87.4 µM | > 100 µM | > 100 µM | > 100 µM | > 100 µM | > 100 µM | – | > 100 µM
Cc1cc(SCC(=O)c2ccc(Br)cc2)cc(C)[o+]1 | 96.2 µM | 74.9 µM | 98.1 µM | 51.3 µM | > 100 µM | 95.5 µM | 52.3 µM | > 100 µM | 83.9 µM | 42.9 µM
CC1(c2cccc(C3CCC4(C=CC3=O)OCCO4)c2)OCCO1 (stereo not drawn) | 15.5 µM | 25.1 µM | 26 µM | 26.1 µM | 25.2 µM | 49.2 µM | 28.9 µM | 27.7 µM | 12.7 µM | 29.6 µM
c1ccc(COc2nc3ccc(C45CC6CC(CC(C6)C4)C5)cc3[nH]2)cc1 | > 100 µM | > 100 µM | > 80.9 µM | > 94 µM | 97 µM | 46.2 µM | 30.9 µM | > 100 µM | > 64.7 µM | > 100 µM
CCc1nnc2sc(-c3ccc(-c4ccc(Cl)cc4Cl)o3)nn12 | > 100 µM | > 100 µM | > 100 µM | > 100 µM | > 100 µM | > 100 µM | > 100 µM | > 100 µM | > 100 µM | > 100 µM
COc1ccc(N(C(=O)OC(C)(C)C)[C@@H]2C(C)=C[C@H]([S@@](=O)c3ccc(C)cc3)[C@@H]3C(=O)N(C)C(=O)[C@@H]32)cc1 | 43.8 µM | > 100 µM | 46.4 µM | 37.9 µM | 40.8 µM | 34.6 µM | 44.3 µM | 32.2 µM | 30.1 µM | 41.3 µM
